# Reference: US7420001B2 (Wyeth, priority 2003, dated 2008)
# Counter-ions that a name gives are not always drawn.
# Legend:
# MMP-2 = target: T1, MMP-2 (Homo sapiens, UniProt P08253); assay: In-vitro fluorescence assay of MMP-2 activity; type: biochemical; conditions: recombinant human MMP-2; read-out: MMP-2 IC50
# T1 construct: purchased Oncogene Research Products (Calbiochem) PF023
# T1 sequence (P08253 110-660): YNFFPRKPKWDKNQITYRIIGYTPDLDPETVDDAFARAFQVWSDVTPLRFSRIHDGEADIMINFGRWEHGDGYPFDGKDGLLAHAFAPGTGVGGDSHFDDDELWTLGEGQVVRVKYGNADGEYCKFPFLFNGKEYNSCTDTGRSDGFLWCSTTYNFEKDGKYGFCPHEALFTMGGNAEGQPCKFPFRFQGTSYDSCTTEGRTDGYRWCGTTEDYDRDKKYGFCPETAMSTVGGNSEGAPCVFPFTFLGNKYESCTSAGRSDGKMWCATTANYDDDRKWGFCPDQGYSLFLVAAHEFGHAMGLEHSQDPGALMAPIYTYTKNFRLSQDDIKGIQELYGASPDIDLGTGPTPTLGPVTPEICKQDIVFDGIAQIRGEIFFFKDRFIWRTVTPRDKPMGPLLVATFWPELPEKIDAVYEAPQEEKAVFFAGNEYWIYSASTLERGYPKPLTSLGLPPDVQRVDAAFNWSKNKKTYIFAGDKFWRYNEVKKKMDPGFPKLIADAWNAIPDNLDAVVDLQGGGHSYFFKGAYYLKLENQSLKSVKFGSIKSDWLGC
# MMP-13 = target: T2, MMP-13 (Homo sapiens, UniProt P45452); assay: In-vitro fluorescence assay of MMP-13 activity; type: biochemical; conditions: recombinant human catalytic domain of MMP-13; read-out: MMP-13 IC50
# T2 construct: made in house
SMILES,IC50 (MMP-2),IC50 (MMP-13)
"Cc1c(C(=O)Nc2ccc(-c3ccc(S(=O)(=O)N(C)[C@H](C(=O)O)C(C)C)cc3)cc2)oc2cccc(C#N)c12 [Example 42, L-2-({4′-[(4-Cyano-3-methyl-benzofuran-2-carbonyl)-amino]-biphenyl-4-sulfonyl}-methyl-amino)-3-methyl-butyric acid]",1590 nM,41 nM
"CNC(=O)c1cccc2oc(C(=O)Nc3ccc(-c4ccc(S(=O)(=O)N[C@H](C(=O)O)C(C)C)cc4)cc3)c(C)c12 [Example 43A, (L-3-methyl-2-{4′-[(3-methyl-4-methylcarbamoyl-benzofuran-2-carbonyl)-amino]-biphenyl-4-sulfonylamino}-butyric acid triethylamine salt]",6720 nM,22 nM
"Cc1c(C(=O)Nc2ccc(-c3ccc(S(=O)(=O)N[C@H](C(=O)O)C(C)C)cc3)cc2)oc2cccc(C(=O)N(C)C)c12 [Example 43B, 2-{4′-[(4-dimethylcarbamoyl-3-methyl-benzofuran-2-carbonyl)-amino]-biphenyl-4-sulfonylamino}-3-methyl-butyric acid triethylamine salt]",7770 nM,18 nM
"Cc1c(C(=O)Nc2ccc(-c3ccc(S(=O)(=O)N[C@H](C(=O)O)C(C)C)cc3)cc2)oc2ccc(Br)cc12 [Example 45, 2-{4′-[(5-Bromo-3-methyl-benzofuran-2-carbonyl)-amino]-biphenyl-4-sulfonylamino}-3-methyl-butyric acid]",81 nM,3 nM
"CCC(=O)Nc1cccc2oc(C(=O)Nc3ccc(-c4ccc(S(=O)(=O)N[C@H](C(=O)O)C(C)C)cc4)cc3)c(C)c12 [Example 49, L-3-Methyl-2-{4′-[(3-methyl-4-propionylamino-benzofuran-2-carbonyl)-amino]-biphenyl-4-sulfonylamino}-butyric acid]",5770 nM,35 nM
"Cc1c(C(=O)Nc2ccc(-c3ccc(S(=O)(=O)N[C@H](C(=O)O)C(C)C)cc3)cc2)oc2cccc(NC(=O)C(C)C)c12 [Example 50, L-2-{4′-[(4-Isobutyrylamino-3-methyl-benzofuran-2-carbonyl)-amino]-biphenyl-4-sulfonylamino}-3-methyl-butyric acid]",7710 nM,45 nM
"CC(C)[C@H](NS(=O)(=O)c1ccc(-c2ccc(NC(=O)c3nc4ccccc4[nH]3)cc2)cc1)C(=O)O [Example 52, L-2-{4′-[(1H-Benzoimidazole-2-carbonyl)-amino]-biphenyl-4-sulfonylamino}-3-methyl-butyric acid]",0.4 nM,0.4 nM
"CC(=O)N(C)c1cccc2oc(C(=O)Nc3ccc(-c4ccc(S(=O)(=O)N[C@H](C(=O)O)C(C)C)cc4)cc3)c(C)c12 [Example 55, L-2-(4′-{[4-(Acetyl-methyl-amino)-3-methyl-benzofuran-2-carbonyl]-amino}-biphenyl-4-sulfonylamino)-3-methyl-butyric acid]",2380 nM,20 nM
"Cc1c(C(=O)Nc2ccc(-c3ccc(S(=O)(=O)N[C@H](C(=O)O)C(C)C)cc3)cc2)oc2cccc(-c3nn[nH]n3)c12 [Example 56, L-3-Methyl-2-(4′-{[3-methyl-4-(2H-tetrazol-5-yl)-benzofuran-2-carbonyl]-amino}-biphenyl-4-sulfonylamino)-butyric acid]",13300 nM,13 nM
"Cc1c(C(=O)Nc2ccc(-c3ccc(S(=O)(=O)N[C@H](C(=O)O)C(C)C)cc3)cc2)oc2cccc(CCC(C)(C)C)c12 [Example 57, L-2-(4′-{[^4-(3,^3-Dimethyl-butyl)-3-methyl-benzofuran-2-carbonyl]-amino}-biphenyl-4-sulfonylamino)-3-methyl-butyric acid]",7000 nM,93 nM
"CCc1c(C(=O)Nc2ccc(-c3ccc(S(=O)(=O)N[C@H](C(=O)O)C(C)C)cc3)cc2)oc2ccccc12 [Example 58, L-2-{4′-[(3-Ethyl-benzofuran-2-carbonyl)-amino]-biphenyl-4-sulfonylamino}-3-methyl-butyric acid]",1770 nM,56 nM
